Reference: patent publication US8420307B2, “Sperm cryoprotective media” (The Jackson Laboratory, priority 2006, dated 2013)

How the values were obtained:
[1] = system: reactive oxygen species within cryopreserved mouse sperm; test: Intracellular reactive oxygen species by CM-H2DCFDA dye and flow cytometry after tert-butyl hydroperoxide challenge; type: cell-based; settings: for level of reactive oxygen species within cryopreserved mouse sperm (relative fluorescence): C57BL/6 sperm, diluted 1:1 with solution supplemented with 954 mM MTG, 1 mM GSH or 2 mM DTT before freezing, FIGS. 7A and 7B
Protocol: Sperm cryopreserved in the presence and absence of the free radical scavenger, the reducing agent monothioglycerol (MTG), are loaded with the green fluorescent dye CM-H2DCFDA to measure intracellular reactive oxygen species. The sperm are challenged with varying levels of Tert-Butylhydrogen peroxide to induce oxidative damage and green fluorescence is measured using flow cytometry.
For example, the capability to reduce ROS can be tested by a dye/sperm method as described in Example 4 and also see publications by Nelid et al 2006 and Guthrie and Welch 2006. Either fresh or cryopreserved sperm can be used in this assay. For example, sperm collected from the vas deferens and epididymis of two C57BL/6J mice into 1 mL of a solution containing 3% skim milk (w/v; BD Diagnostics; cat #232100) and 18% raffinose (w/v; Sigma; cat #R7630). A fraction of the collected sperm was diluted 1:1 in the same skim milk raffinose solution while another fraction was diluted 1:1 using the skim milk raffinose solution supplemented with […] monothioglycerol (MTG; Sigma Aldrich; cat #M6145). Another set of C57BL/6J males was used to collect sperm and dilute in the skim milk raffinose solution with 1 mM glutathione (GSH; Sigma Aldrich; cat #G6013) or 2 mM dithiothreitol (DTT; Sigma Aldrich; cat #646563). The sperm was cryopreserved as described in Example 1 and stored in liquid nitrogen for at least 24 hours.
To determine if MTG, GSH or DTT can act as a free radical scavenger, the sperm were thawed and loaded with the green fluorescent dye 5-(and-6)-chloromethyl-2′,7′-dichlorodihydrofluorescein diacetate (CM-H2DCFDA; Invitrogen C6827). This dye is a cell-permeant indicator for reactive oxygen species that is nonfluorescent until removal of the acetate groups by intracellular esterases and oxidation occurs within the cell. The emission of fluorescence correlates with ROS generation as a result of DCFH oxidation. To load the sperm, at least 150 μL of sperm were thawed and diluted 1:1 in a sperm incubation media described by Bath et al. ((Bath 2003); 123 mM NaCl; 4.7 mM KCl; 0.2 mM MgSO4.7H2O; 10 mM;NaHCO3 21 mM HEPES; 0.33 mM sodium pyruvate; 4.6 mM glucose; 100 IU/mL penicillin G; 1.33 mg/mL BSA). The lyophilized dye was resuspended in dimethylsulfoxide to a concentration of 432.5 μM and then added to the cells, such that the final dye concentration was 40 μM. […] The samples were loaded onto either a FACScan (BD Biosciences; Franklin Lakes, N.J.) or FACSCalibur (BD Biosciences; Franklin Lakes, N.J.) flow cytometer and the green fluorescence was measured on at about 5,000 viable sperm. […]

Rat Sperm = test: Rat sperm motility after cryopreservation and thawing; type: cell-based, LEW/SsNHsd rat; settings: addition of 477 μM MTG to lactose/egg yolk media
Protocol: The epididymides and vas deferentia were collected from one 33 week old LEW/SsNHsd rat (Harlan, Indianapolis, Ind.). Incisions were made in the tissue and the sperm were allowed to swim out, into 2 mL of a solution containing 8% lactose [w/v] (Sigma Aldrich; St. Louis, Mo.) and 23% egg yolk [v/v] from fresh eggs in distilled water (Invitrogen; Carlsbad, Calif.) for 10 min. The sperm suspension was then split with half being placed into the lactose/egg yolk solution and the other half being suspended in lactose/egg yolk solution containing 954 micromol MTG in 15 mL conical tubes. […] The 15 mL conical tubes containing the sperm samples were placed into a beaker containing ˜150 mL of 15° C. water for 10 min. […]
The sperm were loaded into 250 μL French straws (IMV; Maple Grove, Minn.; cat# AAA201), which were then sealed with an instantaneous heat sealer (model AIE-305HD; American International Electric; Whittier, Calif.) and 5 of them loaded into cassettes (Zanders Medical Supplies; Vero Beach, Fla.). […] The sperm were diluted 1:50 in Cooks Mouse Vitro Fert (Cook's; Spencer, Ind.) and motility was evaluated by counting at least 5 different fields using a video monitor connected to a microscope using a magnification of 40×. […]

Structure (SMILES)	level of reactive oxygen species within cryopreserved mouse sperm (relative fluorescence) [1]	rat sperm motility after thawing, effect in words (Rat Sperm)	ROS in cryopreserved sperm (green fluorescence) ([1]; sperm from C57BL/6J (B6) and BALB/cByJ (BALB/cBy) mice, FIG. 3)
O[C@H](CS)[C@H](O)CS (racemic) [DTT, dithiothreitol]	limited the level of ROS	–	–
N[C@@H](CCC(=O)N[C@@H](CS)C(=O)NCC(=O)O)C(=O)O [GSH, reduced glutathione]	limited the level of ROS	–	–
OCC(O)CS (centres unmarked) [MTG, monothioglycerol]	limited the level of ROS	increased motility	reduces the ROS
